Data on twelve molecules can be found in ChEMBL document CHEMBL4673382, “Cyclin-Dependent Kinase Inhibitors in Cancer Therapeutics” (ACS Med Chem Lett, 2021).

Molecules are shown by their SMILES.

One series has as its target CDK9/cyclin T1 (Homo sapiens, UniProt P50750). As to the kind of experiment: Inhibition of human full-length N-terminal GST-fused CDK9 (1 to 372 residues)/His-tagged Cyclin-T1 (1 to 726 residues) expressed in baculovirus expression system using PEP as substrate incubated for 17 mins in presence of ATP by TR-FRET assay. On the technique in general: In TR-FRET formats the signal depends on donor and acceptor labels being close together.

The target in series [1] is Cyclin-dependent kinase 4/cyclin D1 (Homo sapiens, UniProt P11802). As to the kind of experiment: Inhibition of recombinant human full-length GST-tagged CDK4/cyclinD1 expressed in baculovirus expression system using PEP as substrate incubated for 3 mins in presence of ATP by TR-FRET assay.
Cyclin-dependent kinase 4/cyclin D1, sequence (P11802 whole entry, the tested form may be a part): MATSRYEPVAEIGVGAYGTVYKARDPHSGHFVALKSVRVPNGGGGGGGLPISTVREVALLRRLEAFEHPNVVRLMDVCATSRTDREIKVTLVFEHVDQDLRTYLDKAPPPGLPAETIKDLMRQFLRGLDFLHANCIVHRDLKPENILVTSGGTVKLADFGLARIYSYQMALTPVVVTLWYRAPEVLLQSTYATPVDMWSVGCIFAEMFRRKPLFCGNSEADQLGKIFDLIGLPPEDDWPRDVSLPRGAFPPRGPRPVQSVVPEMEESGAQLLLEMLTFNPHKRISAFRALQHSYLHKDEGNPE
Cyclin-dependent kinase 4/cyclin D1, sequence (P24385 whole entry, further chain, the tested form may be a part): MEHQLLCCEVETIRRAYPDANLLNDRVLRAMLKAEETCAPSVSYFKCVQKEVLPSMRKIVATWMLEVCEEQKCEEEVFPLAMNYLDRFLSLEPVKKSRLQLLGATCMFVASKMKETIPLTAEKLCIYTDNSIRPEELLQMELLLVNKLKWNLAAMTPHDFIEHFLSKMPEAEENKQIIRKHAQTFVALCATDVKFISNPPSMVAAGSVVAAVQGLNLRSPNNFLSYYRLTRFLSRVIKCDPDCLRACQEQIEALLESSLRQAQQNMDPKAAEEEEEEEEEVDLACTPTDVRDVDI
In a further series the target is CDK6/cyclin D3 (Homo sapiens, UniProt Q00534). Kind of series: Inhibition of human full-length N-terminal GST tagged CDK6 (1 to 326 residues)/cyclinD3 (1 to 292 residues) expressed in baculovirus expression system using PEP as substrate incubated for 3 mins in presence of ATP by TR-FRET assay.
CDK6/cyclin D3, sequence (P30281 whole entry, the tested form may be a part): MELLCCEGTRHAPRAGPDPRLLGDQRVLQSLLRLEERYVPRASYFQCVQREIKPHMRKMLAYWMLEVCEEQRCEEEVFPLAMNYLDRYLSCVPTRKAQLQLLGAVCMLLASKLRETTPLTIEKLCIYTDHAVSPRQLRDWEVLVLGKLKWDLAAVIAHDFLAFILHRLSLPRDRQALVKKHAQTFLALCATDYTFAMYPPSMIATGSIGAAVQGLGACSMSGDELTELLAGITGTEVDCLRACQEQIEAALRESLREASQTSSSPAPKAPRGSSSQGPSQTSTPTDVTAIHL
CDK6/cyclin D3, sequence (Q00534 whole entry, the tested form may be a part): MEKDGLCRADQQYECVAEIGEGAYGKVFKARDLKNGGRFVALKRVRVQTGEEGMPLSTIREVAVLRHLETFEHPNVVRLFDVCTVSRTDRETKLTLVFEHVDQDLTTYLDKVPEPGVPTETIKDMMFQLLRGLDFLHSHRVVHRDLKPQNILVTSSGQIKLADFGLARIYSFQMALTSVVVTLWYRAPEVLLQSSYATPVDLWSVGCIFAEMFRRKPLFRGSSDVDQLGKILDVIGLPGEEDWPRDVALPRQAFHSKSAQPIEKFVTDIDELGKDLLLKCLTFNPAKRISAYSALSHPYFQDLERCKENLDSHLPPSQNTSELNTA
A short description of series [2]: Half life in rat at 100 mg/kg, po measured up to 48 hrs by LC-MS/MS analysis. Type of series: ADME, organism-based. Conditions: in vivo.
A short description of series [3]: Oral bioavailability in rat at 100 mg/kg administered as single dose measured up to 48 hrs by LC-MS/MS analysis. Type of series: ADME, organism-based. Conditions: in vivo.

CDK9/cyclin T1, sequence (O60563 whole entry, the tested form may be a part): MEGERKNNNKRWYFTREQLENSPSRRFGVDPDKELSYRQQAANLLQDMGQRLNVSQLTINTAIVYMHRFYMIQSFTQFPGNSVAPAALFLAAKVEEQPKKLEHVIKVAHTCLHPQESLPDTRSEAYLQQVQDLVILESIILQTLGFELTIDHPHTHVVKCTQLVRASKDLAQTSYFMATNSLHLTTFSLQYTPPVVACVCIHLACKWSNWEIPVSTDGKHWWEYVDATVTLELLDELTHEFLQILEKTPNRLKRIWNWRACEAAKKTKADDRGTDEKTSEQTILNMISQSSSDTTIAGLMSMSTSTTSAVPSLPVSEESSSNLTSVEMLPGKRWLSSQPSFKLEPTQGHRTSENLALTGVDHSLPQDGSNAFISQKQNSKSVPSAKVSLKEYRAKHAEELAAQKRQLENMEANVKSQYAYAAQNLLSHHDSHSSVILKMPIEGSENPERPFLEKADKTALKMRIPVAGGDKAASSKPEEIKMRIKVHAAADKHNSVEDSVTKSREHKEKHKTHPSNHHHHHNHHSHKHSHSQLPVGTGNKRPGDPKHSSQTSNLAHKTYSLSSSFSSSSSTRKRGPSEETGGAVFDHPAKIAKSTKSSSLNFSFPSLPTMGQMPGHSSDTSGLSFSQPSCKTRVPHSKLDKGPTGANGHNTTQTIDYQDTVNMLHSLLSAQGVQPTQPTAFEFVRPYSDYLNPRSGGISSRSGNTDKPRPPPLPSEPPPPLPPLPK
CDK9/cyclin T1, sequence (P50750 whole entry, the tested form may be a part): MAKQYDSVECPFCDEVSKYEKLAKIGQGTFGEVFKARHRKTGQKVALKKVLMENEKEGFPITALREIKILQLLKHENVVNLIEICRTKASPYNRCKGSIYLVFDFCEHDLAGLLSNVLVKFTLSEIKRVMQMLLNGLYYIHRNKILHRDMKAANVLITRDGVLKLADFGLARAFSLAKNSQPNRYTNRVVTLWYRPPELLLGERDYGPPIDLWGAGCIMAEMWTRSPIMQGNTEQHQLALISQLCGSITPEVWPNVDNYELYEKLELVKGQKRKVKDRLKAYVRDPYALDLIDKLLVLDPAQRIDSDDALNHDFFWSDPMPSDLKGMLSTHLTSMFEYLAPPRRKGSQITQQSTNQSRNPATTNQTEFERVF

In general, IC50 refers to the concentration needed to halve the response being measured. Take `CN1CCN(c2ccc(Nc3ncc4c(n3)N(C3CCCC3)C3(CC(=O)NC3=O)C4)cc2)CC1` (stereo not given): the IC50 came to 80.5 nM on CDK9/cyclin T1 and 25.7 nM in series [1].
On the same counts, the results for `CN1CCN(C2CCN(c3ccc(Nc4ncc5cc(C(=O)N(C)C)n(C67CC(C6)C7)c5n4)cc3F)CC2)CC1` are 7.55 nM and 3.78 nM.
On the same counts, the results for `CN(C)C(=O)c1cc2cnc(Nc3ccc(N4CCN(CCO)CC4)c(F)c3)nc2n1C12CC(C1)C2` are less than 3.2 nM and less than 3.2 nM.
For `CN1CCN(c2ccc(Nc3ncc4c(n3)N(C3CCCC3)C3(CC(=O)NC3=O)C4)cc2F)CC1` (stereo not given), the IC50 at CDK9/cyclin T1 was 23.4 nM; at CDK6/cyclin D3, 70.6 nM; in series [1] it was 14.4 nM.
Usually half-life stands for the time in which the quantity being followed falls by half. A lower half-life goes with fast loss. The bioavailability is dose-corrected exposure relative to a reference, in per cent. For `CN1CCN(c2ccc(Nc3ncc4cc(C(=O)N(C)C)n(C56CC(C5)C6)c4n3)cc2)CC1`, the values for the 50% inhibitory concentration (IC50) (on CDK9/cyclin T1; in series [1]) were 7.08 nM and 3.81 nM, respectively. In series [2], this molecule gave a half-life of 6 h. In series [3], this molecule gave a bioavailability of 33.3%.
Regarding `CC(=O)c1c(C)c2cnc(Nc3ccc(OCCN(C)C)c(F)c3)nc2n(C2CCCC2)c1=O`, the IC50 at CDK9/cyclin T1 was 31.8 nM; at CDK6/cyclin D3 it was 10.1 nM; in series [1], 3 nM.
With `CC(C)N1CCN(c2ccc(Nc3ncc4c(n3)N(C3CCCC3)C3(CC(=O)NC3=O)C4)cc2)CC1` (stereo not given), the figures for the IC50 (on CDK9/cyclin T1; in series [1]) were 70.7 nM and 28.4 nM, respectively.
On to `CC(=O)c1c(C)c2cnc(Nc3ccc(N(C)CCN(C)C)cc3)nc2n(C2CCCC2)c1=O`, for which the IC50 was 7.13 nM at CDK9/cyclin T1 and less than 3.2 nM in series [1].
Consider `CN(C)C(=O)c1cc2cnc(Nc3ccc(N4CCNCC4)c(F)c3)nc2n1C12CC(C1)C2`, for which the IC50 at CDK9/cyclin T1 turned out to be 6.18 nM; at CDK6/cyclin D3 it was 10.1 nM; in series [1], 4.13 nM.
With `CC(=O)c1c(C)c2cnc(Nc3ccc(N4CC(C)NC(C)C4)cc3)nc2n(C2CCCC2)c1=O` (stereo not given), the IC50 at CDK9/cyclin T1 is 6.03 nM; in series [1], less than 3.2 nM.
In the case of `CN1CCN(c2ccc(Nc3ncc4c(n3)N(C3CCCC3)C3(CCNC3=O)C4)cc2F)CC1` (stereo not given), the values for the IC50 (on CDK9/cyclin T1; on CDK6/cyclin D3; in series [1]) were 46.6 nM, 258 nM and 51.7 nM, respectively.
With `CC(=O)c1c(C)c2cnc(Nc3ccc(N(C)CCN(C)C)cc3)nc2n(C23CC(C2)C3)c1=O`, the IC50 at CDK9/cyclin T1 was found to be 149 nM; in series [1] it was 30 nM.
